A short description of series [1]: Solubility as a function of time in hexanol/n-heptane (1:39 v:v), UV-spectrophotometry. To be noted: 25±1° C., UV at 227 nm, hydrobromide. The format is physicochemical. From the text: It is known to a person skilled in the art that the difference in the relative solubility of two polymorphs is independent from the solvent system, if an “ideal solution”, meaning a solution which is not too concentrated, is present. (see e.g. Kuhnert-Brandstätter M., Burger A., Pharmazeutische Industrie, 1972, 34, Nr. 3, 187-190; Samuel H. Yalowsky, Solubility and Solubilization in Aqueous Media, ACS, Oxford University Press 1999, ISBN: 0-8412-3576-7, p. 98). Therefore the solubilities of vortioxetine hydrobromide forms alpha and beta of WO 2007/144005 A1 and the compound of the present invention were determined in a mixture of hexanol and n-heptane. […] (see example 4 of the present invention).
The solubilities as a function of time were determined for vortioxetine hydrobromide polymorphs alpha, beta and the crystalline compound of the present invention, respectively. Therefore approximately 100 mg of each polymorph (polymorph alpha and beta were obtained according to the procedures disclosed in WO 2007/144005 A1, the crystalline compound of the present invention was obtained according to the procedure disclosed in example 1 herein) were stirred in 50 mL of a mixture of hexanol/n-heptane (1:39=v:v) at 25±1° C. Subsequently 5 mL were taken from each suspension after 1, 5, 10, 15, 30 and 60 minutes with the aid of a volumetric pipette and filtered. The concentrations of the obtained solutions were determined directly by UV-spectrophotometry (apparatus: Shimadzu UV1800) at 227 nm.
The determination of the extinction coefficient was performed with polymorph delta as a calibration substance.

Series [2] in a line: Water solubility calculated from relative solubilities and WO 2007/144005 A1 water solubility data. To be noted: calculation with water solubility value of polymorph alpha (2.0 mg/mL) from WO 2007/144005 A1, hydrobromide.
Text: (§1) Using the water solubility values of polymorphs alpha and beta provided in WO 2007/144005 A1 and the herein determined relative solubilities of polymorphs alpha, beta and delta the water solubility of the crystalline compound of the present invention can be calculated.
The nature of series [3]: Solid-state stability of the hydrate at room temperature. The format is physicochemical. As to conditions: not stable. An excerpt:
The novel hydrate of vortioxetine hydrobromide is not stable at room temperature and converts to form alpha of WO 2007/144005 A1 within about 4 weeks.

A short description of series [4]: Gravimetric moisture sorption/desorption cycle. The class given is physicochemical. An excerpt: In addition, an active pharmaceutical ingredient is preferably non-hygroscopic in order to ensure the chemical and physical quality during the storage of the active substance itself. Furthermore, an active pharmaceutical ingredient is preferably non-hygroscopic in order to ensure the chemical and physical quality also during the shelf-life of a solid finished dosage form containing the active substance. Special and expensive packaging can then be avoided. […] For instance, in example 4f of WO 2007/144005 A1, it is mentioned that form gamma absorbs about 4.5% water when exposed to high relative humidity and in example 4h of the same application it is stated that the water content of the hemihydrate strongly depends on the relative humidity. For instance, the water content of the hemihydrate at 95% relative humidity is about 3.7% according to example 4h of WO 2007/144005.
Gravimetric moisture sorption/desorption curves were acquired using a SPS-11 moisture sorption analyzer (MD Messtechnik, Ulm, D). The measurement cycle was started at 43% relative humidity (RH) and decreased in 10% steps down to 0% RH; up to 95% RH, down to 0% RH and up to 43% RH. The equilibrium condition for each step was set to a mass constancy of ±0.01% over 30 min. The temperature was 25±0.1° C.

Another series is described as follows: physchem. As to conditions: water.
The conditions of series [5]: exposed to high relative humidity; example 4f of WO 2007/144005 A1; cited from earlier work.

Text for physchem: as §1

`Br.Cc1ccc(Sc2ccccc2N2CCNCC2)c(C)c1` [polymorph beta, 1-{2-[(2,4-dimethylphenyl)sulfanyl]phenyl}piperazine hydrobromide, reference compound]: in series [1] (listed as beta), the “absolute solubility in hexanol/n-heptan (1:39 = v:v)” value (shortened to “absolute solubility”) came out at 15 µg/mL. Besides, the “calculated water solubility 1)” value in series [2] was 1000 µg/mL.
Take `Br.Cc1ccc(Sc2ccccc2N2CCNCC2)c(C)c1` [polymorph alpha, 1-{2-[(2,4-dimethylphenyl)sulfanyl]phenyl}piperazine hydrobromide]: in series [1] (listed as alpha), the “absolute solubility” value was determined as 31 µg/mL.
In the case of `Cc1ccc(Sc2ccccc2N2CCNCC2)c(C)c1`, the “time to conversion to form alpha” value in series [3] was no more than 4 weeks.
As to `Br.Cc1ccc(Sc2ccccc2N2CCNCC2)c(C)c1` [polymorph delta, 1-{2-[(2,4-dimethylphenyl)sulfanyl]phenyl}piperazine hydrobromide], in series [1] (listed as present invention), the “absolute solubility” value is 48 µg/mL. The hygroscopicity result in series [4] (according to the specifications of the European Pharmacopoeia) was “non-hygroscopic”. For the same compound, the water content result in series [4] (relative humidity of about 0%, 25° C.) was “about 0.3%”; in series [4] (relative humidity of about 80%, 25° C.) it was “about 0.5%”; in series [4] (up to a relative humidity of about 95%), “less than 0.7%”. In addition, the solubility in the series “physchem” is 3800 µg/mL. The “calculated water solubility 1)” value in series [2] (listed as compound of the present invention) was 3000 µg/mL.
For `Br.Cc1ccc(Sc2ccccc2N2CCNCC2)c(C)c1` [form gamma, 1-{2-[(2,4-dimethylphenyl)sulfanyl]phenyl}piperazine hydrobromide], the water absorbed entry in series [5] is recorded as “about 4.5%”.

The record behind these values is US9499504B2, “Crystalline form of vortioxetine hydrobromide” (Sandoz AG, priority 2012, dated 2016).
